The numbers were not newly measured in publication PMC7395068, “The evolution of strategies to minimise the risk of human drug-induced liver injury (DILI) in drug discovery and development” (Archives of Toxicology, 2020), which cites them from elsewhere.

Read-outs that look alike come from different tables or passages of the source.

For series [1], the system named is HepG2 cells. To be noted: cited from earlier work.
The test system of the next series is human hepatocytes. The settings on record: cited from earlier work.
For series [2] the following is noted: cited from earlier work.
Series [3] relates to isolated mouse liver mitochondria. To be noted: cited from earlier work.
For series [4] the following is noted: cited from earlier work. This is another data set of the same source.
The test system of series [5] is HepG2 cells. To be noted: In vitro Assay; ref Persson 2013; cited from earlier work.
For series [6], the system named is THLE or HepG2 cells, isolated mitochondria, BSEP. The settings on record: cited from earlier work.
Where [7] appears, read: In vitro Assay, ref O'Brien 2006.
Where [8] appears, read: In vitro Assay, ref Porceddu 2012.

As to `CCCCN1CCCCC1C(=O)Nc1c(C)cccc1C` (stereo not drawn) [bupivacaine], the “Structural based (HCI)” value is “+VE (lowest HCI endpoint IC50 (or in the absence of dose–response < 100 µM) < 30 × total human plasma exposure levels (Cmax.tot))” with HepG2 cells [1] (setting [7]) and “-VE” in the series on human hepatocytes (In vitro Assay, ref Xu 2008). The “In vivo DILI” value is “-VE” in series [2] (ref O'Brien 2006), “+VE” in series [2] (ref Porceddu 2012) and “-VE” in series [2] (ref Xu 2008). Besides, the “in vitro data EC2<=1x Cmax” value in series [3] (setting [8]) was “-VE”. Also, the “in vitro data EC20<=2uM” value in series [3] (setting [8]) was “-VE”.

As to `C[C@@](Cc1ccc(O)c(O)c1)(NN)C(=O)O` [carbidopa], the “Structural based (HCI)” value with HepG2 cells [1] (setting [7]) was “-VE”; with human hepatocytes (In vitro Assay, ref Xu 2008) it was “-VE”; in the series on HepG2 cells [5], “-VE”. Besides, the “DILI +VE (5-8), DILI -VE (-4)” value in series [4] (ref Chen 2016) is “-VE”. Further, in series [4] (ref Chen 2016), the DILI severity category entry is “Ambiguous DILI-concern”. For the same molecule, the “In vivo DILI” value in series [2] (ref O'Brien 2006), in series [2] (ref Persson 2013) and in series [2] (ref Xu 2008) was “-VE” throughout. Further, in the series on HepG2 cells [5], the Cluser analysis entry is “-VE”. In addition, in series [6] (In vitro Assay, ref Aleo 2019), the “Partition Hybrid HRM Score” value is listed as “-VE”. Further, the “Ro2 Hybrid HRM Score” value in series [6] (In vitro Assay, ref Aleo 2019) is “-VE”.

Consider `COc1cc(N)c(Cl)cc1C(=O)NC1CCN(CCCOc2ccc(F)cc2)CC1OC` (stereo not drawn) [cisapride], for which the “Structural based (HCI)” value in the series with HepG2 cells [1] (setting [7]) is recorded as “+VE”; with human hepatocytes (In vitro Assay, ref Xu 2008) it was “-VE”; in the series on HepG2 cells [5] it was “-VE”. Further, the “In vivo DILI” value in series [2] ([…]), in series [2] (ref O'Brien 2006), in series [2] (ref Persson 2013) and in series [2] (ref Xu 2008) was “-VE” each time. The Cluser analysis entry in the series on HepG2 cells [5] is listed as “-VE”.

For `C[N+](C)(C)CCOP(=O)(O)OP(=O)([O-])OC[C@H]1O[C@@H](n2ccc(N)nc2=O)[C@H](O)[C@@H]1O` [citicoline], the “Structural based (HCI)” value is “+VE (lowest HCI endpoint IC50 (or in the absence of dose–response < 100 µM) < 30 × total human plasma exposure levels (Cmax.tot))” in the series with HepG2 cells [1] (setting [7]) and “-VE” in the series with HepG2 cells [5]. Further, the “In vivo DILI” value in series [2] (ref O'Brien 2006) and in series [2] (ref Persson 2013) was “-VE” throughout. The Cluser analysis entry in the series with HepG2 cells [5] is given as “-VE”.

In the case of `CCOC(=O)C(C)(C)Oc1ccc(Cl)cc1` [clofibrate], the “Structural based (HCI)” value in the series with HepG2 cells [1] (setting [7]) is “+VE”; with HepG2 cells [5], “-VE”. Further, the “DILI +VE (5-8), DILI -VE (-4)” value in series [4] (ref Chen 2016) was “+VE”. In series [4] (ref Chen 2016), the DILI severity category entry was “vLess-DILI-Concern”. For the same molecule, the “In vivo DILI” value in series [2] ([…]) is listed as “-VE”; in series [2] (ref Aleo 2019) it was “+VE”; in series [2] (ref O'Brien 2006) it was “+VE”; in series [2] (ref Persson 2013) it was “+VE”. Besides, in the series on HepG2 cells [5], the Cluser analysis entry is “-VE”. Also, in series [6] (In vitro Assay, ref Aleo 2019), the “Partition Hybrid HRM Score” value is recorded as “+VE”. Besides, the “Ro2 Hybrid HRM Score” value in series [6] (In vitro Assay, ref Aleo 2019) was “+VE”.

Turning to `O=C1Nc2ccc(Cl)cc2[C@@](C#CC2CC2)(C(F)(F)F)O1` [efavirenz], the “Structural based (HCI)” value in the series with HepG2 cells [1] (setting [7]) is “+VE (lowest HCI endpoint IC50 (or in the absence of dose–response < 100 µM) < 30 × total human plasma exposure levels (Cmax.tot))”. For the same molecule, in series [4] (ref Chen 2016), the “DILI +VE (5-8), DILI -VE (-4)” value was “+VE” and the DILI severity category result is “vMost-DILI-Concern”. The “In vivo DILI” value in series [2] (ref O'Brien 2006) was “+VE”. In addition, in series [2] (ref Persson 2013), the “In vivo DILI” value is on record as “+VE”. In addition, in the series with HepG2 cells [5], the Cluser analysis result is recorded as “+VE” and the “Structural based (HCI)” value was “+VE”.

Turning to `CNC(=O)Oc1ccc2c(c1)[C@]1(C)CCN(C)[C@@H]1N2C` [eserine], the “Structural based (HCI)” value with HepG2 cells [1] (setting [7]) is “+VE (lowest HCI endpoint IC50 (or in the absence of dose–response < 100 µM) < 30 × total human plasma exposure levels (Cmax.tot))”; in the series with human hepatocytes (In vitro Assay, ref Xu 2008), “-VE”; in the series on HepG2 cells [5], “-VE”. Moreover, the “In vivo DILI” value in series [2] (ref O'Brien 2006), in series [2] (ref Persson 2013) and in series [2] (ref Xu 2008) was “-VE” each time. Further, in the series on HepG2 cells [5], the Cluser analysis entry was “-VE”.

For `O=[N+]([O-])O[C@H]1CO[C@H]2[C@@H]1OC[C@H]2O[N+](=O)[O-]` [isosorbide dinitrate], in the series with HepG2 cells [1] (setting [7]), the “Structural based (HCI)” value is recorded as “+VE (lowest HCI endpoint IC50 (or in the absence of dose–response < 100 µM) < 30 × total human plasma exposure levels (Cmax.tot))”. In addition, in series [4] (ref Chen 2016), the “DILI +VE (5-8), DILI -VE (-4)” value is given as “-VE” and the DILI severity category entry is recorded as “vNo-DILI-Concern”. Further, in series [2] (ref O'Brien 2006), the “In vivo DILI” value is “-VE”. The “In vivo DILI” value in series [2] (ref Persson 2013) is reported as “-VE”. For the same molecule, in the series with HepG2 cells [5], the Cluser analysis result was “-VE” and the “Structural based (HCI)” value is “-VE”.

Regarding `O=C(CCNNC(=O)c1ccncc1)NCc1ccccc1` [nialamide], the “Structural based (HCI)” value in the series with HepG2 cells [1] (setting [7]) was “+VE (lowest HCI endpoint IC50 (or in the absence of dose–response < 100 µM) < 30 × total human plasma exposure levels (Cmax.tot))”. Besides, in series [4] (ref Chen 2016), the “DILI +VE (5-8), DILI -VE (-4)” value is given as “+VE” and the DILI severity category result is given as “vMost-DILI-Concern”. Moreover, the “In vivo DILI” value in series [2] (ref O'Brien 2006) was “-VE”. For the same molecule, the “In vivo DILI” value in series [2] (ref Persson 2013) is recorded as “-VE”. In addition, in the series with HepG2 cells [5], the Cluser analysis result is “-VE” and the “Structural based (HCI)” value is recorded as “-VE”.

Regarding `CO[C@@H]1[C@@H](OC(N)=O)[C@@H](O)[C@H](Oc2ccc3c(O)c(NC(=O)c4ccc(O)c(CC=C(C)C)c4)c(=O)oc3c2C)OC1(C)C` [novobiocin], the “Structural based (HCI)” value is “-VE” in the series on HepG2 cells [1] (setting [7]); “+VE” in the series on human hepatocytes (In vitro Assay, ref Xu 2008); “-VE” in the series on HepG2 cells [5]. For the same molecule, the “In vivo DILI” value in series [2] (ref O'Brien 2006), in series [2] (ref Persson 2013), in series [2] (ref Porceddu 2012) and in series [2] (ref Xu 2008) was “+VE” throughout. The Cluser analysis result with HepG2 cells [5] was “-VE”. The “in vitro data EC2<=1x Cmax” value in series [3] (setting [8]) is reported as “-VE”. The “in vitro data EC20<=2uM” value in series [3] (setting [8]) is reported as “+VE”.

Consider `CC[N+](C)(CC)CCOC(=O)C(O)(c1ccccc1)C1CCCCC1` (stereo not drawn) [oxyphenonium], for which the “Structural based (HCI)” value in the series on HepG2 cells [1] (setting [7]) is on record as “-VE”; in the series with human hepatocytes (In vitro Assay, ref Xu 2008), “-VE”; with HepG2 cells [5], “-VE”. Also, the “In vivo DILI” value in series [2] (ref O'Brien 2006), in series [2] (ref Persson 2013) and in series [2] (ref Xu 2008) was “-VE” each time. Besides, the Cluser analysis entry in the series on HepG2 cells [5] is reported as “-VE”.

Take `Cc1ncc(C[n+]2csc(CCO)c2C)c(N)n1` [thiamine]: in the series with HepG2 cells [1] (setting [7]), the “Structural based (HCI)” value is recorded as “+VE (lowest HCI endpoint IC50 (or in the absence of dose–response < 100 µM) < 30 × total human plasma exposure levels (Cmax.tot))”. Besides, in series [4] (ref Chen 2016), the “DILI +VE (5-8), DILI -VE (-4)” value is given as “-VE” and the DILI severity category result is “vNo-DILI-Concern”. For the same molecule, the “In vivo DILI” value in series [2] (ref O'Brien 2006) is on record as “-VE”. Besides, the “In vivo DILI” value in series [2] (ref Persson 2013) was “-VE”. In the series with HepG2 cells [5], the Cluser analysis entry is “-VE” and the “Structural based (HCI)” value is recorded as “-VE”.

Take `CC1(C)O[C@@H]2[C@@H](CO[C@@]3(COS(N)(=O)=O)OC(C)(C)O[C@@H]23)O1` [topiramate]: the “Structural based (HCI)” value in the series with HepG2 cells [1] (setting [7]) is listed as “+VE (lowest HCI endpoint IC50 (or in the absence of dose–response < 100 µM) < 30 × total human plasma exposure levels (Cmax.tot))”. In series [4] (ref Chen 2016), the “DILI +VE (5-8), DILI -VE (-4)” value is given as “+VE” and the DILI severity category entry is “vLess-DILI-Concern”. Also, the “In vivo DILI” value in series [2] (ref O'Brien 2006) was “-VE”. In addition, the “In vivo DILI” value in series [2] (ref Persson 2013) was “-VE”. For the same molecule, in the series with HepG2 cells [5], the Cluser analysis entry is listed as “-VE” and the “Structural based (HCI)” value was “-VE”.

Regarding `Cc1cn([C@H]2C[C@H](N=[N+]=[N-])[C@@H](CO)O2)c(=O)[nH]c1=O` [zidovudine], the “Structural based (HCI)” value with HepG2 cells [1] is “+VE”. In addition, the “Structural based (HCI)” value in the series with human hepatocytes is given as “-VE”. In series [4] (in vivo), the DILI severity category result was “vMost-DILI-Concern”. Moreover, in series [3] (setting [8]), the “in vitro data EC2<=1x Cmax” value is given as “+VE”. Besides, the “in vitro data EC20<=2uM” value in series [3] is given as “-VE”. In series [6], the “Partition Hybrid HRM Score” value is given as “-VE” and the “Ro2 Hybrid HRM Score” value is “-VE”.
